In patent publication EP0226475A1, “Diphenoxyethyl amine derivatives, process for their preparation and pharmaceutical compositions containing them” (Albert ROLLAND S.A. Société dite, priority 1985, dated 1987):

Experiments:
Format in all cases: in vivo
DA (Dopamine) uptake = DA (Dopamine) uptake (Rattus norvegicus, UniProt P23977); experiment: Uptake "ex vivo" of DA; details: dose not given
Description: (§1) Activité sur les tests d'inhibition ou de recapture des principaux médiateurs adrénergiques.
(§2) Les résultats obtenus en comparaison avec ceux des antidépresseurs classiques sont rassemblés dans le tableau II: […]

[1] = biological target: NAd (Nor adrénaline) uptake (Rattus norvegicus, UniProt Q63380); experiment: Uptake "ex vivo" of NAd; details: dose not given
Description: as §1

5-HT (Sérotonine) uptake = 5-HT (Sérotonine) uptake (Rattus norvegicus, UniProt P31652); experiment: Uptake "ex vivo" of 5-HT; details: dose not given, N.S. = not significant
Description: as §1, §2

CN(C)CC(Oc1ccccc1)Oc1ccccc1 [MEDIFOXAMINE]
inactif: UPTAKE "EX VIVO" % d'inhibition DA (DA (Dopamine) uptake) | UPTAKE "EX VIVO" % d'inhibition NAd [1] | UPTAKE "EX VIVO" % d'inhibition 5-HT (5-HT (Sérotonine) uptake)
